The values that follow come from ChEMBL document CHEMBL1201862, “PubChem BioAssay data set” (2004).

Some test systems named below: NCI-H460; DU-145; K562; NCI-H23; UACC-257; LOX IMVI; OVCAR-5; CCRF-CEM; T47D; BT-549; SR; UO-31; HCT-116; SNB-19; MCF7; SF-295; KM12; SF-268; SN12C; SK-OV-3.
Common to all, as to experiment: DTP human tumour cell line panel, 48 h

The structures appear in SMILES notation.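 Dose response: 5 concentrations. Exposure: 48 h. Format: 96-well plates. Endpoint: linear interpolation; highest concentration if not reached. GI50 marks 50% less growth.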 The source made the active and inactive calls. No stated cut-off is given here; in the data, active = GI50 up to about 1.1 µM and inactive = higher.

Consider `Nc1ccc(Oc2ccc(C34CC5CC6C3CC3CC4C(C5)C6(c4ccc(Oc5ccc(N)cc5)cc4)C3)cc2)cc1`, for which the GI50 is 21.4 µM (inactive) with NCI-H460; 8.93 µM (inactive) in the experiment with DU-145; 10.2 µM (inactive) with K562; 26.4 µM (inactive) with NCI-H23; 0.329 µM (active) in the experiment with UACC-257; 20 µM (inactive) in the experiment on LOX IMVI. Besides, the GI50 in the experiment with OVCAR-5 was > 100 µM (inactive); in the experiment with CCRF-CEM it was 15.4 µM (inactive); in the experiment on T47D, 9.14 µM (inactive); in the experiment on BT-549, 34.4 µM (inactive); in the experiment on SR, 21.9 µM (inactive); in the experiment with UO-31, 8.36 µM (inactive). Further, the GI50 is 8.41 µM (inactive) in the experiment on HCT-116; 9.53 µM (inactive) with SNB-19; 36.2 µM (inactive) in the experiment on MCF7; 23.8 µM (inactive) with SF-295; 19.5 µM (inactive) in the experiment on KM12; 22.6 µM (inactive) with SF-268. In addition, the GI50 is 25.1 µM (inactive) in the experiment on SN12C and 22.8 µM (inactive) in the experiment on SK-OV-3.

In the case of `S=c1cc(-c2ccc3c(c2)OCO3)s[nH]1`, the GI50 in the experiment on NCI-H460, in the experiment with DU-145, in the experiment on K562, with NCI-H23, in the experiment on UACC-257 and with LOX IMVI was > 100 µM (inactive) each time. The GI50 in the experiment with OVCAR-5 was > 100 µM (inactive); with CCRF-CEM, > 100 µM (inactive); in the experiment with T47D it was 89.7 µM (inactive); in the experiment on BT-549, > 100 µM (inactive); in the experiment on SR, > 100 µM (inactive); in the experiment with UO-31 it was > 100 µM (inactive). The GI50 with HCT-116, with SNB-19, in the experiment on MCF7, in the experiment with SF-295, in the experiment on KM12 and in the experiment with SF-268 was > 100 µM (inactive) throughout. Besides, the GI50 in the experiment on SN12C and with SK-OV-3 was > 100 µM (inactive) each time.

Turning to `CO[C@H]1C[C@@H]2CC[C@@H](C)[C@@](O)(O2)C(=O)C(=O)N2CCCC[C@H]2C(=O)O[C@H]([C@H](C)C[C@@H]2CC[C@@H](OC(=O)C(C)(CO)CO)[C@H](OC)C2)CC(=O)[C@H](C)/C=C(\C)[C@@H](O)[C@@H](OC)C(=O)[C@H](C)C[C@H](C)/C=C/C=C/C=C/1C` [TEMSIROLIMUS], the 50% growth inhibitory concentration (GI50) in the experiment on NCI-H460 was 0.0678 µM (active); in the experiment on DU-145 it was 0.0975 µM (active); in the experiment on K562, 0.0228 µM (active); in the experiment with NCI-H23, 0.00501 µM (active); in the experiment with UACC-257, 1.99 µM (inactive); in the experiment with LOX IMVI, 0.00327 µM (active). Further, the concentration for 50% growth inhibition (GI50) with OVCAR-5 was 0.00363 µM (active); in the experiment on CCRF-CEM it was 0.00177 µM (active); in the experiment with T47D, 0.000995 µM (active); in the experiment on BT-549, 0.00904 µM (active); in the experiment with SR, 0.000361 µM (active); in the experiment on UO-31 it was 0.00496 µM (active). Further, the GI50 was 3.26 µM (inactive) in the experiment on HCT-116; 0.0258 µM (active) with SNB-19; 0.00538 µM (active) in the experiment with MCF7; 0.000557 µM (active) in the experiment with SF-295; 0.0264 µM (active) in the experiment on KM12; 0.00873 µM (active) in the experiment on SF-268. Further, the figures for the 50% growth inhibitory concentration (GI50) in the experiment on SN12C and with SK-OV-3 were 0.00607 µM (active) and 1.97 µM (inactive), respectively.

Regarding `O=C1C=Cc2c1csc2Br`, the GI50 in the experiment with NCI-H460 is > 100 µM (inactive); in the experiment with DU-145, > 100 µM (inactive); in the experiment on K562 it was 26.5 µM (inactive); in the experiment with NCI-H23, 33 µM (inactive); in the experiment with UACC-257, 67.3 µM (inactive); with LOX IMVI, 25.5 µM (inactive). For the same molecule, the GI50 in the experiment on OVCAR-5 was > 100 µM (inactive); with CCRF-CEM, 16.9 µM (inactive); in the experiment on T47D, 54.5 µM (inactive); with BT-549, 27.4 µM (inactive); in the experiment on SR, 10.6 µM (inactive); in the experiment with UO-31, 24.2 µM (inactive). Besides, the GI50 is 43.3 µM (inactive) with HCT-116; 70.3 µM (inactive) in the experiment with SNB-19; 24.9 µM (inactive) in the experiment on MCF7; > 100 µM (inactive) with SF-295; 50.8 µM (inactive) in the experiment with KM12; 86.9 µM (inactive) with SF-268. For the same molecule, the GI50 with SN12C and in the experiment with SK-OV-3 was > 100 µM (inactive) each time.

Broadly, the GI50 is the concentration at which growth is held to half of that of the control.
